Source: patent US20090311217A1, “3-SUBSTITUTED-1H-INDOLE COMPOUNDS, THEIR USE AS MTOR KINASE AND PI3 KINASE INHIBITORS, AND THEIR SYNTHESES” (priority 2008, published 2009)

Key:
Format in all cases: biochemical
PI3K-gamma = PI3K-gamma (Homo sapiens, UniProt P48736); test: PI3K-gamma fluorescence polarization assay; settings: PI3Kγ Avg. IC50
In short: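 FP competition read-out: PIP3 produced displaces BODIPY-TMR-IP4 (5 nM) from GST-GRP1 PH domain (100 nM). Kinase step: 5 ng enzyme, 2.5 μM diC8-PIP2, 25 μM ATP, pH 7 HEPES/MgCl2, 1 h, 25° C; EDTA stop.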

human TOR = molecular target: T1, human TOR (Homo sapiens, UniProt P42345); test: mTOR enzyme assay (DELFIA, His6-S6K substrate); settings: read-out: mTOR Kinase Avg. IC50
T1 construct: FLAG

PI3K-alpha = PI3K-alpha (Homo sapiens, UniProt P42336); test: PI3K-alpha fluorescence polarization assay; settings: read-out: PI3Kα Avg. IC50
PI3K-alpha, sequence (P42336 whole entry, species assumed): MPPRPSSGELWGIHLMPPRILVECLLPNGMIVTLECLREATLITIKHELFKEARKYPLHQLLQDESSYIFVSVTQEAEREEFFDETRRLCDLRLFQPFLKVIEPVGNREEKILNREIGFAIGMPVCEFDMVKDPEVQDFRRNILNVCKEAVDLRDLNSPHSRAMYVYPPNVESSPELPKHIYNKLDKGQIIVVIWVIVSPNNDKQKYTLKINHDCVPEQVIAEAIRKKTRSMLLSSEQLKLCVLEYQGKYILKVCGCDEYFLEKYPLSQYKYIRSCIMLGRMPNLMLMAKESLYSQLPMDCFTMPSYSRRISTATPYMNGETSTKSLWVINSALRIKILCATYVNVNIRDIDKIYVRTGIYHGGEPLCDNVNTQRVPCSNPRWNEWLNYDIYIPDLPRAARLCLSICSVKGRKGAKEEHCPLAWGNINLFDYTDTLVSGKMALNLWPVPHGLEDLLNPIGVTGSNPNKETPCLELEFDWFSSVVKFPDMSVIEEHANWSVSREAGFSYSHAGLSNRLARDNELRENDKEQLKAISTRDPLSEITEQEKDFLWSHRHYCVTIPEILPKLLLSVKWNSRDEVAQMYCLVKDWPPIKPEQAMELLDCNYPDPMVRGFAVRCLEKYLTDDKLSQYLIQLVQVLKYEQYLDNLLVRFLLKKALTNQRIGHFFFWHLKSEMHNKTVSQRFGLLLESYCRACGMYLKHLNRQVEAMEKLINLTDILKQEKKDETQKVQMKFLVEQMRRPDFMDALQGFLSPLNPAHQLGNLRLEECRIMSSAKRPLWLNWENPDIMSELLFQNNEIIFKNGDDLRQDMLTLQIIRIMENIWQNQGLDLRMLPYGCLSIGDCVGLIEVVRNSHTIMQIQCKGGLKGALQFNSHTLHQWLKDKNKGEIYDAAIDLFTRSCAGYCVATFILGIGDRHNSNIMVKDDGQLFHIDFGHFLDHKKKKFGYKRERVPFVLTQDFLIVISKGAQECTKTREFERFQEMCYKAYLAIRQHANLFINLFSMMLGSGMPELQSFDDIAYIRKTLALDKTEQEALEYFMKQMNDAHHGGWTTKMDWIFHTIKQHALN
PI3K-alpha, sequence (P27986 whole entry partner, species assumed): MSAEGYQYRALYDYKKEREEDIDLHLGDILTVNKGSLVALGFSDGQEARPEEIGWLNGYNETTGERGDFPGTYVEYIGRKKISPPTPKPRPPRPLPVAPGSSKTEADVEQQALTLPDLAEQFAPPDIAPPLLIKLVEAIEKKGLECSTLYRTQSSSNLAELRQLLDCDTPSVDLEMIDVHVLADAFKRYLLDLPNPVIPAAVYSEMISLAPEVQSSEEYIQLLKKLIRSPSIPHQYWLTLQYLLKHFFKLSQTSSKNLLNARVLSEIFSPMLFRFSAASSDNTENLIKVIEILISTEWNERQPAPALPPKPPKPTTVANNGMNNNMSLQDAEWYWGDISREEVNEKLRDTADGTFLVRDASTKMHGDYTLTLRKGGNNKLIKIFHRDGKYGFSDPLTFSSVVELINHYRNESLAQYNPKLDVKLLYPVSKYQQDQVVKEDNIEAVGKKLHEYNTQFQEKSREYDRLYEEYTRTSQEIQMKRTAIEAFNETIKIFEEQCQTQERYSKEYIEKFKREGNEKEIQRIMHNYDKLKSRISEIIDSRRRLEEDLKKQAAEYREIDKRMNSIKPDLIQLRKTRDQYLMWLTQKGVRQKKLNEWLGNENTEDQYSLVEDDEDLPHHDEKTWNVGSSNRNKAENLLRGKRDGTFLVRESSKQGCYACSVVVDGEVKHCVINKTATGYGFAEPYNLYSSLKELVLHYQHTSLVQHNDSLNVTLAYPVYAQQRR

PI3K-gamma, sequence (P48736 whole entry, species assumed, the tested form may be a part): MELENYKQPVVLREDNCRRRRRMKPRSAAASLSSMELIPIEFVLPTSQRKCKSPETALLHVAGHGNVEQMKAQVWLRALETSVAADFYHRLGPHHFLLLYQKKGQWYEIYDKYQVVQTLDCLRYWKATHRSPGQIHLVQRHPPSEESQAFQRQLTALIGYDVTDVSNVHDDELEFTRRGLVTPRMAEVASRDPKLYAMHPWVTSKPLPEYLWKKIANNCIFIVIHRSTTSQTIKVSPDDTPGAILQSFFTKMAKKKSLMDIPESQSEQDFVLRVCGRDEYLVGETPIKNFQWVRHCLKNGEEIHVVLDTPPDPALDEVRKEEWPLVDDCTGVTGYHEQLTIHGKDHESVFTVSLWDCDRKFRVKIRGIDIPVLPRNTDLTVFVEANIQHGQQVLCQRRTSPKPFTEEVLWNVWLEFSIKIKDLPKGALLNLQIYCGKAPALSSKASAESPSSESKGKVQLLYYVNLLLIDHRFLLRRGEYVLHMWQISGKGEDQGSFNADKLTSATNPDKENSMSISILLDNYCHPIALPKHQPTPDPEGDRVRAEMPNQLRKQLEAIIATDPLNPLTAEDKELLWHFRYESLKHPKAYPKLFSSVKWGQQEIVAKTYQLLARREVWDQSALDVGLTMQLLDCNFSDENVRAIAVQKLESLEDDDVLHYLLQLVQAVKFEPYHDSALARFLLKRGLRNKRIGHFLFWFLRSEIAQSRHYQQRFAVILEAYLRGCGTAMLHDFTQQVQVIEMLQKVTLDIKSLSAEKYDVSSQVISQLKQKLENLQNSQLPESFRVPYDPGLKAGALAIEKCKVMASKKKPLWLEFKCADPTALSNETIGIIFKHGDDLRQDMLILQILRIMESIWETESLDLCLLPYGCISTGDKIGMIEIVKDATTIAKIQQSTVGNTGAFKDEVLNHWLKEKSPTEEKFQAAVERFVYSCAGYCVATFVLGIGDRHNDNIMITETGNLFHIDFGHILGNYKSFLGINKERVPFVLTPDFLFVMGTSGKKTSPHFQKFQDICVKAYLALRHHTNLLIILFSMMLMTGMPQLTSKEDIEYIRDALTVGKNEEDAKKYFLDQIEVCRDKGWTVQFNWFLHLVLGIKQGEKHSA

| IC50 (PI3K-gamma) | IC50 (human TOR) | IC50 (PI3K-alpha) | SMILES |
| --- | --- | --- | --- |
| 2.15 nM | 2450 nM | 0.3 nM | COc1ccc2c(c1)c(/C=C1\Oc3ccc(NC(=O)Nc4ccc(C(=O)N5CCN(C)CC5)cc4)cc3C1=O)c(C)n2C [Compound 658, 1-{(2Z)-2-[(5-methoxy-1,2-dimethyl-1H-indol-3-yl)methylidene]-3-oxo-2,3-dihydro-1-benzofuran-5-yl}-3-{4-[(4-methylpiperazin-1-yl)carbonyl]phenyl}urea] |
| 2.2 nM | 15 nM | 0.3 nM | CCn1c(C)c(/C=C2\Oc3ccc(NC(=O)Nc4ccc(C(=O)NCCNC)cc4)cc3C2=O)c2cc(OC)ccc21 [Compound 659, 4-[({(2Z)-2-[(1-ethyl-5-methoxy-2-methyl-1H-indol-3-yl)methylene]-3-oxo-2,3-dihydro-1-benzofuran-5-yl}carbamoyl)amino]-N-[2-(methylamino)ethyl]benzamide] |
| 2.95 nM | 4 nM | 0.3 nM | CNCCNC(=O)c1ccc(NC(=O)Nc2ccc3c(c2)C(=O)/C(=C/c2c(C4CCCCC4)[nH]c4ccc(OC)cc24)O3)cc1 [Compound 660, 4-[({(2Z)-2-[(2-cyclohexyl-5-methoxy-1H-indol-3-yl)methylene]-3-oxo-2,3-dihydro-1-benzofuran-5-yl}carbamoyl)amino]-N-[2-(methylamino)ethyl]benzamide] |
| 2 nM | 6 nM | 0.3 nM | CNCCNC(=O)c1ccc(NC(=O)Nc2ccc3c(c2)C(=O)/C(=C/c2c(C)n(C)c4ccc(OC)cc24)O3)cc1 [Compound 661, 4-[({(2Z)-2-[(5-methoxy-1,2-dimethyl-1H-indol-3-yl)methylene]-3-oxo-2,3-dihydro-1-benzofuran-5-yl}carbamoyl)amino]-N-[2-(methylamino)ethyl]benzamide] |
| 3070 nM | 1480 nM | 81.5 nM | CNC(=O)Nc1cc(C)c2c(c1)C(=O)/C(=C/c1c(C)n(CCN3CCN(C)CC3)c3ccc(OC)cc13)O2 [Compound 662, 1-[(2Z)-2-({5-methoxy-2-methyl-1-[2-(4-methylpiperazin-1-yl)ethyl]-1H-indol-3-yl}methylidene)-7-methyl-3-oxo-2,3-dihydro-1-benzofuran-5-yl]-3-methylurea] |
| 42.3 nM | 710 nM | 5.73 nM | CCn1c(C)c(/C=C2\Oc3ccc(NC(=O)Nc4ccc(CCCCN(C)C)cc4)cc3C2=O)c2cc(OC)ccc21 [Compound 663, 1-{4-[4-(dimethylamino)butyl]phenyl}-3-{(2Z)-2-[(1-ethyl-5-methoxy-2-methyl-1H-indol-3-yl)methylidene]-3-oxo-2,3-dihydro-1-benzofuran-5-yl}urea] |
| 63 nM | 18 nM | 2.05 nM | CNC(=O)Nc1ccc2c(c1)C(=O)/C(=C/c1c(-c3c(C)nn(C)c3C)n(CCNCCN(C)C)c3ccc(OC)cc13)O2 [Compound 664, 1-[(2Z)-2-{[1-(2-{[2-(dimethylamino)ethyl]amino}ethyl)-5-methoxy-2-(1,3,5-trimethyl-1H-pyrazol-4-yl)-1H-indol-3-yl]methylidene}-3-oxo-2,3-dihydro-1-benzofuran-5-yl]-3-methylurea] |
| 127 nM | 39 nM | 5.5 nM | CNC(=O)Nc1ccc2c(c1)C(=O)/C(=C/c1c(-c3c(C)nn(C)c3C)n(CCN(C)CCN(C)C)c3ccc(OC)cc13)O2 [Compound 665, 1-[(2Z)-2-{[1-(2-{[2-(dimethylamino)ethyl](methyl)amino}ethyl)-5-methoxy-2-(1,3,5-trimethyl-1H-pyrazol-4-yl)-1H-indol-3-yl]methylidene}-3-oxo-2,3-dihydro-1-benzofuran-5-yl]-3-methylurea] |
| 4.5 nM | 34 nM | 0.8 nM | CCn1c(C)c(/C=C2\Oc3ccc(NC(=O)Nc4ccc(C(=O)NCCCN(C)C)cc4)cc3C2=O)c2cc(OC)ccc21 [Compound 666, N-[3-(dimethylamino)propyl]-4-[({(2Z)-2-[(1-ethyl-5-methoxy-2-methyl-1H-indol-3-yl)methylidene]-3-oxo-2,3-dihydro-1-benzofuran-5-yl}carbamoyl)amino]benzamide] |
| 11.3 nM | 153 nM | 1.87 nM | CCn1c(C)c(/C=C2\Oc3ccc(NC(=O)Nc4ccc(OCCN(C)C)cc4)cc3C2=O)c2cc(OC)ccc21 [Compound 667, 1-{4-[2-(dimethylamino)ethoxy]phenyl}-3-{(2Z)-2-[(1-ethyl-5-methoxy-2-methyl-1H-indol-3-yl)methylidene]-3-oxo-2,3-dihydro-1-benzofuran-5-yl}urea] |
| 29 nM | 4 nM | 0.6 nM | CNCCNC(=O)c1ccc(NC(=O)Nc2ccc3c(c2)C(=O)/C(=C/c2c(C)n(CCN4CCN(C)CC4)c4ccc(OC)cc24)O3)cc1 [Compound 669, 4-({[(2Z)-2-({5-methoxy-2-methyl-1-[2-(4-methylpiperazin-1-yl)ethyl]-1H-indol-3-yl}methylidene)-3-oxo-2,3-dihydro-1-benzofuran-5-yl]carbamoyl}amino)-N-[2-(methylamino)ethyl]benzamide] |
| 20.3 nM | 133 nM | 3.5 nM | CCn1c(C)c(/C=C2\Oc3ccc(NC(=O)Nc4ccc(CCN(C)C)cc4)cc3C2=O)c2cc(OC)ccc21 [Compound 670, 1-{4-[2-(dimethylamino)ethyl]phenyl}-3-{(2Z)-2-[(1-ethyl-5-methoxy-2-methyl-1H-indol-3-yl)methylidene]-3-oxo-2,3-dihydro-1-benzofuran-5-yl}urea] |
| 25 nM | 220 nM | 4 nM | CCn1c(C)c(/C=C2\Oc3ccc(NC(=O)Nc4ccc(CCCN(C)C)cc4)cc3C2=O)c2cc(OC)ccc21 [Compound 671, 1-{4-[3-(dimethylamino)propyl]phenyl}-3-{(2Z)-2-[(1-ethyl-5-methoxy-2-methyl-1H-indol-3-yl)methylidene]-3-oxo-2,3-dihydro-1-benzofuran-5-yl}urea] |
| 180 nM | 27 nM | 10.5 nM | CNCCn1c(-c2c(C)nn(C)c2C)c(/C=C2\Oc3ccc(NC(=O)NC)cc3C2=O)c2cc(OC)ccc21 [Compound 672, 1-[(2Z)-2-({5-methoxy-1-[2-(methylamino)ethyl]-2-(1,3,5-trimethyl-1H-pyrazol-4-yl)-1H-indol-3-yl}methylidene)-3-oxo-2,3-dihydro-1-benzofuran-5-yl]-3-methylurea] |
| 61.5 nM | 60 nM | 12.5 nM | CNC(=O)Nc1ccc2c(c1)C(=O)/C(=C/c1c(-c3c(C)nn(C)c3C)n(CCN(C)C)c3ccc(OC)cc13)O2 [Compound 673, 1-[(2Z)-2-({1-[2-(dimethylamino)ethyl]-5-methoxy-2-(1,3,5-trimethyl-1H-pyrazol-4-yl)-1H-indol-3-yl}methylidene)-3-oxo-2,3-dihydro-1-benzofuran-5-yl]-3-methylurea] |
| 40 nM | 370 nM | 9 nM | CCn1c(C)c(/C=C2\Oc3ccc(NC(=O)Nc4ccc(N(C)CCCCN(C)C)cc4)cc3C2=O)c2cc(OC)ccc21 [Compound 675, 1-(4-{[4-(dimethylamino)butyl](methyl)amino}phenyl)-3-{(2Z)-2-[(1-ethyl-5-methoxy-2-methyl-1H-indol-3-yl)methylidene]-3-oxo-2,3-dihydro-1-benzofuran-5-yl}urea] |
| 3.25 nM | 7 nM | 0.3 nM | CCn1c(C)c(/C=C2\Oc3ccc(NC(=O)Nc4ccc(NC(=O)CCN(C)C)cc4)cc3C2=O)c2cc(OC)ccc21 [Compound 676, N-{4-[({(2Z)-2-[(1-ethyl-5-methoxy-2-methyl-1H-indol-3-yl)methylidene]-3-oxo-2,3-dihydro-1-benzofuran-5-yl}carbamoyl)amino]phenyl}-N3,N3-dimethyl-b-alaninamide] |
| 144 nM | 595 nM | 19 nM | CCn1c(C)c(/C=C2\Oc3ccc(NC(=O)Nc4ccc(S(=O)(=O)N5CCN(C)CC5)cc4)cc3C2=O)c2cc(OC)ccc21 [Compound 677, 1-{(2Z)-2-[(1-ethyl-5-methoxy-2-methyl-1H-indol-3-yl)methylidene]-3-oxo-2,3-dihydro-1-benzofuran-5-yl}-3-{4-[(4-methylpiperazin-1-yl)sulfonyl]phenyl}urea] |
| 14.5 nM | 130 nM | 3 nM | CCn1c(C)c(/C=C2\Oc3ccc(NC(=O)Nc4ccc(NCCN(C)C)cc4)cc3C2=O)c2cc(OC)ccc21 [Compound 678, 1-(4-{[2-(dimethylamino)ethyl]amino}phenyl)-3-{(2Z)-2-[(1-ethyl-5-methoxy-2-methyl-1H-indol-3-yl)methylidene]-3-oxo-2,3-dihydro-1-benzofuran-5-yl}urea] |

| SMILES | IC50 (PI3K-gamma) | IC50 (human TOR) | IC50 (PI3K-alpha) |
| --- | --- | --- | --- |
| CCn1c(C)c(/C=C2\Oc3ccc(NC(=O)Nc4ccc(OCCCCN(C)C)cc4)cc3C2=O)c2cc(OC)ccc21 [Compound 668, 1-{4-[4-(dimethylamino)butoxy]phenyl}-3-{(2Z)-2-[(1-ethyl-5-methoxy-2-methyl-1H-indol-3-yl)methylidene]-3-oxo-2,3-dihydro-1-benzofuran-5-yl}urea] | 12.3 nM | 295 nM | 2.87 nM |
| COc1ccc2c(c1)c(/C=C1\Oc3ccc(NC(=O)Nc4ccc(OCCCCN(C)C)cc4)cc3C1=O)c(C)n2CCN1CCN(C)CC1 [Compound 674, 1-{4-[4-(dimethylamino)butoxy]phenyl}-3-[(2Z)-2-({5-methoxy-2-methyl-1-[2-(4-methylpiperazin-1-yl)ethyl]-1H-indol-3-yl}methylidene)-3-oxo-2,3-dihydro-1-benzofuran-5-yl]urea] | 686 nM | 350 nM | 10 nM |
